Where two headings read alike, the source gives them in different places.
Legend:
GFP-cIAP2 [1] = target: T1, GFP-cIAP2 (Homo sapiens, UniProt Q13489); assay: GFP-cIAP2 degradation assay (loss of GFP signal, flow cytometry); assay type: cell-based; conditions: read-out: ΔGFP-cIAP2 EC50, 24 h
T1 construct: expressed in transfected cells

GFP-cIAP2 [2] = target: T1, GFP-cIAP2; assay: as above; assay type: cell-based
Excerpt: In this assay, treatment of GFP-cIAP-expressing melanoma cell line A375 with Smac mimetic, Compound 15, for two hours, results in degradation of cIAP-1 and cIAP-2 with concomitant loss of GFP-signal.

[3] = cited from earlier work
xenograft = conditions: cited from earlier work
cytoplasmic cIAP-2 = cytoplasmic cIAP-2 (Homo sapiens, UniProt Q13489); assay: Western blot of cytoplasmic cIAP-2 in GFP-cIAP-2 A375 cells; conditions: 100 nM, 0 to 240 minutes
Method: (§7) The stable cell lines expressing GFP-cIAP-1 or GFP-cIAP-2 were cultured in 10 cm dishes in sub-confluence overnight. […] The lysate was cleared by centrifugation (14000 rpm) at 4° C. for 10 minutes and the supernatant was subjected to the co-immunoprecipitation experiment. The protein concentration of the supernatant was measured by using Bradford reagent (Sigma). Co-immunoprecipitation was carried out with 600 μg of the total protein and 1 μg of anti-TRAF 2 antibody (Cell Signaling). After the incubation at 4° C. for overnight, 25 μL protein A/G beads (Invitrogen) was added to precipitate the immunocomplex. The beads were washed with the lysis buffer three times, followed by dissolving with 25 μL SDS-Loading buffer (Invitrogen).
(§8) The membrane was soaked with the blocking buffer (LICOR) for 30 minutes, followed by incubation with the primary antibodies, cIAP-1 and cIAP-2 (R&D Systems), at 4° C. for overnight. After the incubation, the membrane was washed three times with TBS-T buffer (Invitrogen) and incubated with IRDye anti-goat antibody (LICOR) at 37° C. for 45 minutes. Following 5 times washings, the membrane was scanned by The Odyssey Infrared Imaging System (LICOR).

TRAF2-bound cIAP-2 = TRAF2-bound cIAP-2 (Homo sapiens, UniProt Q13489); assay: Anti-TRAF2 co-immunoprecipitation and western blot of TRAF2-bound cIAP-2 in GFP-cIAP-2 A375 cells; conditions: 100 nM, 0 to 240 minutes
Method: as §7, §8

[4] = target: cIAP-1 (cytoplasmic and TRAF2-bound) (Homo sapiens, UniProt Q13490); assay: Co-immunoprecipitation and western blot, cytoplasmic versus TRAF2-bound cIAP-1 in GFP-cIAP-1 A375 cells; conditions: 100 nM, 0 to 240 minutes, visual
Method: as §7, §8

[5] = tested on: MDP-mediated NF-κB-luc (NOD2); assay: MDP-stimulated NF-kB luciferase reporter gene assay (NOD2 signaling) in HCT116 cells; assay type: cell-based, human; conditions: for Inhibition of MDP-mediated NF-κB-luc, % Inhibition: 10 μM Smac mimetic, HCT116 cells
Method: (§1) To assay effects on XIAP E3 ubiquitin ligase activity manifested as NF-kB activation, we established both DAP- and MDP-stimulated luciferase reporter gene assays in which Smac mimetics are evaluated in cells at a single 10 μM drug concentration. Specifically, we developed stable cell lines with HCT116 cells (human colon cancer) that carry the NF-kB-luciferase reporter gene under the regulation of NF-kB promoter activation elements. The assay was carried out as follows: • 1. HCT116 (3-3) cells were cultured in white wall 96-wells plate (50,000 cells/50 μL/well) for overnight at 37° C. • 2. […] The luciferase activity in each well was measured by using Steady-Glo® Luciferase Assay System (Promega Corp.). 48 μL of luminescence detection reagent was added in each well, followed by brief agitation. The plate was left in dark for 15 minutes and then the luminescence activity was measured by using microplate reader Victor2 (PerkinElmer Life and Analytical Science, Shelton, Conn.). • 4. Calculation:
(§2) Luciferase activity in no ligand (i.e., […]) treatment wells=background (BG)
(§3) Luciferase activity in ligand only treatment wells=positive control (PC)
(§4) Luciferase activity in Smac mimetic (SM)+ligand treatment wells=Test • i) Test<PC
(§5) Inhibitory activity by SM(%)=100×[(PC−Test)/(PC−BG)] • ii) Test>PC
(§6) Activation by SM(%)=100×[(Test−BG)/(PC−BG)]

Tolerability = conditions: in vivo
Excerpt: . Binding of IAP antagonists to cIAP1 proteins induces a conformational rearrangement that exposes the RING domain. Once exposed, the RING domain dimerizes and E3 ubiquitin ligase activity is activated. Using a range of assays that evaluated cIAP1 stability; NF-κB activation; cIAP1 oligomeric state; […]. Birinapant-induced loss of cIAPs correlated with inhibition of TNF-mediated NF-κB activation, caspase activation, tumor cell killing, and tumor regression. Birinapant was well-tolerated. […]. […]; (ii.) decreased affinity for XIAP BIR3; (iii.) decreased ability to inhibit XIAP-dependent NOD signaling, despite its activity in an XIAP-dependent caspase-3 activation assay; and, (iv.) decreased pro-inflammatory IL-1β secretion. […]

cIAP2 BIR3 = cIAP2 BIR3 (Homo sapiens, UniProt Q13489); assay: Fluorescence polarization displacement assay, cIAP2 BIR3; conditions: for Ki: read-out: cIAP2 BIR3, Ki
Excerpt: (§9) To establish protein-ligand binding affinity, we employed a fluorescence polarization assay. This assay monitored the displacement of an IAP binding motif (IBM)-containing peptide, Abu-RPFK(5-carboxyfluorescein)-NH2, from the Type III BIR domains of cIAP1, cIAP2, XIAP, and ML-IAP.

Xiap−/− murine BMDMs = assay: IL-1β secretion from LPS-primed XIAP knockout bone marrow-derived macrophages; assay type: cell-based; conditions: 24 h
Method: We thus evaluated a selection of Smac-mimetics in both LPS-primed wild-type (WT) and XIAP knockout (Xiap^−/−) murine BMDMs to assess their capacity to induce the secretion of IL-1β following treatment with Smac-mimetic (FIG. 4).
WT and Xiap^−/− BMDMs were primed with LPS±the indicated concentration of Smac-mimetics for 24 h. WT BMDM results are presented as the mean±SEM (n=3 biological independent repeats).

WT murine BMDMs = assay: IL-1β secretion from LPS-primed WT bone marrow-derived macrophages; assay type: cell-based; conditions: 24 h
Excerpt: Given the heightened activity of 2 versus 1 on cIAP2, we speculated that the improved tolerability of 1 might also be associated with reduced antagonism of XIAP functional activity in this system. We thus evaluated a selection of Smac-mimetics in both LPS-primed wild-type (WT) and XIAP knockout (Xiap^−/−) murine BMDMs to assess their capacity to induce the secretion of IL-1β following treatment with Smac-mimetic (FIG. 4).
WT and Xiap^−/− BMDMs were primed with LPS±the indicated concentration of Smac-mimetics for 24 h. WT BMDM results are presented as the mean±SEM (n=3 biological independent repeats). […] Total levels of IL-1β induced by Smac-mimetics in these assays varied but the trend was identical.

[6] = tested on: DAP-mediated NF-κB-luc (NOD1); assay: DAP-stimulated NF-kB luciferase reporter gene assay (NOD1 signaling) in HCT116 cells; assay type: cell-based, human; conditions: for Inhibition of DAP-mediated NF-κB-luc, % Inhibition: 10 μM Smac mimetic, HCT116 cells
Method: as §1, §2, §3, §4, §5, §6

XIAP BIR3 = XIAP BIR3 (Homo sapiens, UniProt P98170); assay: Fluorescence polarization displacement assay, XIAP BIR3
Excerpt: as §9

[7] = read-out: ΔGFP-cIAP2 EC50, 2 h, 2 h, A375 cells

Chain of cIAP2 BIR3 (Q13489 238-349 limits assumed): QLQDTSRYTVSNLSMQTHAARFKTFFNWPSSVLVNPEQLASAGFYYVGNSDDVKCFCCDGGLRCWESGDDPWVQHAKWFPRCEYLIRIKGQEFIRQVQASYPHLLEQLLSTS
T1 sequence (Q13489 whole entry): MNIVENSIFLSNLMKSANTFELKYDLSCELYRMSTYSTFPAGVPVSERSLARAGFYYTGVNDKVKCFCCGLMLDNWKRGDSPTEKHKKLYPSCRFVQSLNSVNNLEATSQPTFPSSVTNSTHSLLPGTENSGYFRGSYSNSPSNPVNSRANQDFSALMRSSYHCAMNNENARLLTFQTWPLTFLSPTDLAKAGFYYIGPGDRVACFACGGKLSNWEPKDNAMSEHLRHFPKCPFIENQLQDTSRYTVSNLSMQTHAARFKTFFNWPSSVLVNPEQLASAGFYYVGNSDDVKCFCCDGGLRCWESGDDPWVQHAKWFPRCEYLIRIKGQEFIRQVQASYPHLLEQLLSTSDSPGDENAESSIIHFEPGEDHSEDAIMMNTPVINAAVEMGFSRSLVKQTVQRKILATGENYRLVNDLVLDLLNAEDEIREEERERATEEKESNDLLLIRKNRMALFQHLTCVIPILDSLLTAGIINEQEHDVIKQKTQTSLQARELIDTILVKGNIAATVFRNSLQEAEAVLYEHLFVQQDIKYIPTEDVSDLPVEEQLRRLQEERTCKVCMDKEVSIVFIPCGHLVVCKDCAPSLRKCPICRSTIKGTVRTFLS
Chain of cytoplasmic cIAP-2 (Q13489 whole entry): as above
Chain of TRAF2-bound cIAP-2 (Q13489 whole entry): as above
Chain of TRAF2-bound cIAP-2 (Q12933 whole entry partner): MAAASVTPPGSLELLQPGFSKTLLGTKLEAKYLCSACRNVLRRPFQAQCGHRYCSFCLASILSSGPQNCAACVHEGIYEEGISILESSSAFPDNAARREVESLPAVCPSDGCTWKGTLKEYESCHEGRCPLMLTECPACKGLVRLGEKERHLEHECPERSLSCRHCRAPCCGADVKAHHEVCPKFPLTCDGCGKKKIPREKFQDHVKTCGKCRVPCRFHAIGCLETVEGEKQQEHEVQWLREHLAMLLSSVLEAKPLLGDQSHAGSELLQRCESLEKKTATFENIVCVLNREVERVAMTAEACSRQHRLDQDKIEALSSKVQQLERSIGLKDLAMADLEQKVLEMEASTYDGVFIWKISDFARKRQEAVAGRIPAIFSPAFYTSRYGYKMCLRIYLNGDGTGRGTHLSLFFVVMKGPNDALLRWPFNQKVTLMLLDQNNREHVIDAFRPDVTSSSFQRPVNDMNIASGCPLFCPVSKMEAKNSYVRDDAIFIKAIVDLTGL
Chain of XIAP BIR3 (P98170 241-356 limits assumed): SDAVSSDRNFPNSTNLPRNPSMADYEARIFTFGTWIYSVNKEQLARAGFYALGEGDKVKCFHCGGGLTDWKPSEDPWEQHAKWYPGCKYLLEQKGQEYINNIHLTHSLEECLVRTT
Chain of cIAP-1 (cytoplasmic and TRAF2-bound) (Q13490 whole entry): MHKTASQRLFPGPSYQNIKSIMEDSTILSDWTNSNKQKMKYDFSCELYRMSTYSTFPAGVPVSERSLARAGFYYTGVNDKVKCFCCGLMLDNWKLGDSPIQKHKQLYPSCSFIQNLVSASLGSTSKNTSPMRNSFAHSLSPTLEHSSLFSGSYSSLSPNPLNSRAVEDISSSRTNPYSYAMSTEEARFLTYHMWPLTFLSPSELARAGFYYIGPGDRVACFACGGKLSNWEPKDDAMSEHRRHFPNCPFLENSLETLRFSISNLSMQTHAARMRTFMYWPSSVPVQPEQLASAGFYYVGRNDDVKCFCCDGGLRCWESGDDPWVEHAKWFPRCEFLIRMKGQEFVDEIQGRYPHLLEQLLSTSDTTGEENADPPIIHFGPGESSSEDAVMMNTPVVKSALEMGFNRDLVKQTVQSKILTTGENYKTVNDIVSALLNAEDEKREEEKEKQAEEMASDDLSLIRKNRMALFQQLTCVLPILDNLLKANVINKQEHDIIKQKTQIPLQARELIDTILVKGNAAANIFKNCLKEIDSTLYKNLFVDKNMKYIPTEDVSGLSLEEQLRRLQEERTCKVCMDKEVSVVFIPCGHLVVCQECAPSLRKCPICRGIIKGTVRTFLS

## CC[C@@H](NC(=O)[C@H](C)NC)C(=O)N1C[C@@H](O)C[C@H]1Cc1c(-c2[nH]c3cc(F)ccc3c2C[C@@H]2C[C@H](O)CN2C(=O)[C@@H](CC)NC(=O)[C@H](C)NC)[nH]c2cc(F)ccc12 [compound 4]
GFP-cIAP2 [1]
  DC50: 5540 ± 115 nM
GFP-cIAP2 [2]; [7]
  DC50: 5720 ± 157 nM
TNF-mediated NF-κB-luc
  EC50: 4980 ± 996 nM

## CN[C@@H](C)C(=O)N[C@H](C(=O)N1C[C@@H](O)C[C@H]1Cc1c(-c2[nH]c3cc(F)ccc3c2C[C@@H]2C[C@H](O)CN2C(=O)[C@@H](NC(=O)[C@H](C)NC)[C@@H](C)OC)[nH]c2cc(F)ccc12)[C@@H](C)OC [Compound 5]
[3]
  tolerability in rats compared to Compound 15: less well-tolerated
xenograft
  antitumor activity compared to Compound 15: comparable antitumor activity
Cytoplasmic cIAP-2
  degradation of cytoplasmic cIAP-2: degraded
TRAF2-bound cIAP-2
  degradation of TRAF2-bound cIAP-2: degraded
[4]
  extent of degradation of cytoplasmic cIAP-1 versus cIAP-1 bound to TRAF2: approximately the same

## CC[C@H](NC(=O)[C@H](C)NC)C(=O)N1C[C@@H](O)C[C@H]1Cc1c(-c2[nH]c3cc(F)ccc3c2C[C@@H]2C[C@H](O)CN2C(=O)[C@@H](CC)NC(=O)[C@H](C)NC)[nH]c2cc(F)ccc12 [compound 3]
GFP-cIAP2 [1]
  DC50: 4930 ± 1600 nM
GFP-cIAP2 [2]
  reduced ability to degrade GFP-cIAP2 relative to 1: 100 fold
GFP-cIAP2 [2]; [7]
  DC50: > 10000 nM
TNF-mediated NF-κB-luc
  EC50: 1730 ± 985 nM
[5]
  Inhibition of MDP-mediated NF-KB-luc @ 2 h, % Inhibition: No

## CC[C@@H](NC(=O)[C@@H](C)NC)C(=O)N1C[C@H](O)C[C@@H]1Cc1c(-c2[nH]c3cc(F)ccc3c2C[C@H]2C[C@@H](O)CN2C(=O)[C@@H](CC)NC(=O)[C@@H](C)NC)[nH]c2cc(F)ccc12 [compound 5, ent-birinapant]
GFP-cIAP2 [1]
  DC50: > 10000 nM
GFP-cIAP2 [2]; [7]
  DC50: > 10000 nM
TNF-mediated NF-κB-luc
  EC50: > 10000 nM

## CC[C@H](NC(=O)[C@H](C)NC)C(=O)N1C[C@@H](O)C[C@H]1Cc1c(-c2[nH]c3cc(F)ccc3c2C[C@@H]2C[C@H](O)CN2C(=O)[C@H](CC)NC(=O)[C@H](C)NC)[nH]c2cc(F)ccc12 [birinapant (1), birinapant]
GFP-cIAP2 [1]
  EC50: 151 ± 86 nM
Tolerability
  tolerability: well-tolerated
cIAP2 BIR3
  reduction of affinity for cIAP2 BIR3 compared with Compound A: approximately 40 fold
  Ki: 36 nM
cIAP2 BIR3; listed as Birinapant
  Ki: ~36 nM
Cytoplasmic cIAP-2
  degradation of cytoplasmic cIAP-2: substantially non-degraded
Xiap−/− murine BMDMs
  IL-1β secretion in Xiap−/− BMDMs: induced IL-1β secretion
GFP-cIAP2 [2]; [7]
  EC50: 108 ± 46 nM
TRAF2-bound cIAP-2
  degradation of TRAF2-bound cIAP-2: degraded
WT murine BMDMs
  IL-1β secretion from LPS-primed WT BMDMs: no increase in IL-1β secretion
TNF-mediated NF-κB-luc
  EC50: 9 ± 5 nM
[5]; listed as 1
  Inhibition of MDP-mediated NF-κB-luc, % Inhibition: ca. 35%
[5]; listed as Birinapant (1)
  Inhibition of MDP-mediated NF-κB-luc, % Inhibition: 35 (+/−14) %
[5]
  Inhibition of MDP-mediated NF-KB-luc @ 2 h, % Inhibition: 35 ± 14%
[6]; listed as 1
  Inhibition of DAP-mediated NF-κB-luc, % Inhibition: ca. 35%
[6]; listed as Birinapant (1)
  Inhibition of DAP-mediated NF-κB-luc, % Inhibition: 35 (+/−16) %
[6]; @ 2 h
  Inhibition of DAP-mediated NF-KB-luc @ 2 h, % Inhibition: 35 ± 16%

## CN[C@@H](C)C(=O)N[C@H](C(=O)N1C[C@@H](O)C[C@H]1Cc1c(Cc2[nH]c3cc(F)ccc3c2C[C@@H]2C[C@H](O)CN2C(=O)[C@@H](NC(=O)[C@H](C)NC)C(C)(C)C)[nH]c2cc(F)ccc12)C(C)(C)C [(14)]
[5]
  Inhibition of MDP-mediated NF-κB-luc, % Inhibition: 86 (+/−9) %
[6]
  Inhibition of DAP-mediated NF-κB-luc, % Inhibition: 74 (+/−14) %

## CN[C@@H](C)C(=O)N[C@H](C(=O)N1C[C@@H](O)C[C@H]1Cc1c(Cc2[nH]c3cc(F)ccc3c2C[C@@H]2C[C@H](O)CN2C(=O)[C@@H](NC(=O)[C@H](C)NC)C(C)(C)C)[nH]c2cc(F)ccc12)C(C)(C)C [(13)]
[5]
  Inhibition of MDP-mediated NF-κB-luc, % Inhibition: No inhibition
[6]
  Inhibition of DAP-mediated NF-κB-luc, % Inhibition: No inhibition

## CN[C@@H](C)C(=O)N[C@H](C(=O)N1C[C@@H](O)C[C@H]1Cc1c(Cc2[nH]c3cc(F)ccc3c2C[C@@H]2C[C@H](O)CN2C(=O)[C@@H](NC(=O)[C@H](C)NC)C(C)(C)C)[nH]c2cc(F)ccc12)C(C)(C)C [(11)]
XIAP BIR3
  Kd: < 1 nM
[5]
  Inhibition of MDP-mediated NF-κB-luc, % Inhibition: 100 (n = 2) %
[6]
  Inhibition of DAP-mediated NF-κB-luc, % Inhibition: 100 (n = 1) %

## CN[C@@H](C)C(=O)N[C@H](C(=O)N1C[C@@H](O)C[C@H]1Cc1c(Cc2[nH]c3cc(F)ccc3c2C[C@@H]2C[C@H](O)CN2C(=O)[C@@H](NC(=O)[C@H](C)NC)C(C)(C)C)[nH]c2cc(F)ccc12)C(C)(C)C [(12)]
XIAP BIR3; read-out: XIAP BIR3 Kd
  Kd: < 1 nM
[5]
  Inhibition of MDP-mediated NF-κB-luc, % Inhibition: 98 (+/−2) %
[6]
  Inhibition of DAP-mediated NF-κB-luc, % Inhibition: 99 (+/−2) %

Reference: patent US20140303090A1, “Smac Mimetic Therapy” (TETRALOGIC PHARMACEUTICALS CORPORATION, priority 2013, published 2014)
